Measured values taken from patent publication US8287923B2, “Compositions and methods for treating immune disorders” (priority 2005, dated 2012).

What was measured:
Type in all cases: cell-based, human
OSC2 cells = test: Semi-quantitative RT-PCR of SS-A/Ro and SS-B/La mRNA; conditions: 100 uM EGCG
Method: (§1) Total RNA was extracted using an RNeasy total RNA isolation system (QIAGEN, Valentia, Calif.) RT reactions and PCR reactions were performed according to the manufacturer's protocol (Super Array Bioscience Corp). For amplification, the following pair of primers was used,
(§2) Amplification was started by heating for 1.5 min at 94° C., followed by 30 cycles for 52 kD SSA/Ro. 25 cycles for GAPDH and 25 cycles for SSB/La, each cycle consisting of 15
(§3) second at 94° C., 30 seconds at 57.3° C., and 1 min at 72° C. A final extension was performed at 72° C. for 5 min prior to gel analysis.
(§4) To further test this possibility, three cell types, NHEK, NS-SV-AC (an SV40 immortalized cell line derived from human submandibular acinar cells) and OC2 cells (derived from an oral squamous cell carcinoma) were treated with 100 uM EGCG for different times. A semi-quantitative estimate of SS-A/Ro and SS-B/La mRNA levels was then obtained by RT-PCR during the exponential period of amplification. GAPDH was used as a housekeeping gene control.

NS-SV-AC cells [1] = test: Western analysis of autoantigen protein levels; conditions: 100 uM
Method: (§5) Western blot. Cells were washed in ice-cold PBS and lysed for 20 min in RIPA buffer containing 1% (v/v) Nonidet P-40, 0.5% (w/v) sodium deoxycholate, 0.1% (w/v) SDS, 10 μg/ml leupeptin, 3 μg/ml aprotinin and 100 mM phenylmethylsulfonyl fluoride (PMSF). Samples of lysates containing the same amount of protein were loaded in each lane (we used 5-30μg, depending on the antibody used) and electrophoretically separated on a 12% SDS polyacrylamide gel. Following electrophoresis, proteins were transferred to a PVDF membrane (Immobilon™-P, Millipore Corporation, Bedford, Mass.). The membrane was blocked for 1 h with 5% (w/v) non-fat dry milk powder in PBST (0.1% Tween-20 in PBS) and then incubated for 1 h with primary antibody diluted in PBST/milk (Antibodies and dilutions: rabbit polyclonal JNK1/2, […], mouse monoclonal pJNK1/2, 1:1000, rabbit polyclonal ERK, 1:2000, rabbit polyclonal p38, 1:1000, rabbit polyclonal pp 38, 1:1000 and goat polyclonal actin, 1:2000). The membrane was washed three times with PBST and incubated with peroxidase-conjugated, affinity-purified anti-rabbit IgG (Santa Cruz Biotechnology, Inc.) for 1 h. Following extensive washing, the reaction was developed by enhanced chemiluminescent staining using ECL Western blotting detection reagents (Amersham Pharmacia Biotech Inc., Piscataway, N.J.).
(§6) To extend the mRNA data, the protein levels of 6 different autoantigens in NHEK and NS-SV-AC cells were determined by Western analysis following two treatments with 100 uM EGCSG at 24 and 48 hrs.

NHEK [2] = test: Western analysis of autoantigen protein levels; conditions: 100 uM
Method: as §5, §6

NS-SV-AC cells [3] = test: Western blot of p38, ERK and JNK phosphorylation
Method: as §5
p38 activation is one mechanism by which GTPs attenuates mechanisms of SS pathogenesis. […] Therefore, of these three signaling pathways, EGCG activates primarily p38 in NS-SV-AC cells.

NS-SV-AC cells [4] = test: Semi-quantitative RT-PCR of SS-A/Ro and SS-B/La mRNA; conditions: 100 uM EGCG, different times
Method: (§7) Cell treatment: ECCG was dissolved in cell culture media as a 50 mM stock immediately before use. Exponentially growing NS-SV-AC cells were incubated with 100 μM ECCG for various time periods in the growth media described above, and then were either extracted for total RNA or cell lysates prior to RT-PCR or Western blots.
as §1, §2, §3, §4

NHEK [5] = test: as above; conditions: 100 uM EGCG, different times
Method: as §7, §1, §2, §3, §4

NS-SV-AC cells [6] = test: TNF-α-induced cytotoxicity, MTT assay; conditions: dose-dependent; 100 ng/ml TNFα, 24 hr; p<0.05
Method: TNF-α cyotoxicity: NS-SV-AC cells (0.5×10<4> cells/well) were seeded in a 96-well microplate and either treated for 24 hr with EGCC as described above (or not treated in the control), in the presence of 100 ng/ml TNFα and 10 μg/ml cyclohexamide. After the treatments, viability was determined by the MTT assay. The cells in each well were washed with 200 μl of phosphate-buffered saline (PBS) and incubated with 100 μl of 2% (w/v) MTT in a solution of 0.05 M Tris-HCl (pH 7.6), 0.5 mM MgCl2, 2.5 mM CoCl2 and 0.25 M disodium succinate at 37° C. for 30 min. Cells were fixed by the addition of 100 μl of 4% (v/v) formalin in 0.2 M Tris-HCl (pH 7.6), and after a 5 min incubation at room temperature liquid was removed and the wells were allowed to dry. Each well was rinsed with 200 μl water and cells were solubilized by the addition of 100 μl of 6.35% (v/v) 0.1 N NaOH in DMSO. The colored formazan product was measured by a Thermo MAX micro plate reader (Molecular Devices Corp. Sunnyvale, Calif.) at a wavelength of 562 nm.
We examined the effects of EGCG on TNF-α-induced cytotoxicity of the human salivary gland acinar cell line NS-SV-AC using the MTT assay.
To examine the role of activation of the p38 signaling pathway in reducing TNF-α-induced cytotoxicity, cells were exposed to TNF-[alpha] and EGCG in the presence of either the p38 MAPK inhibitor SB203580 or the MEK inhibitor PD98059.

O=C(O[C@@H]1Cc2c(O)cc(O)cc2O[C@@H]1c1cc(O)c(O)c(O)c1)c1cc(O)c(O)c(O)c1 [EGCG, (−)-epigallocatechin-3-gallate]
SS-A/Ro mRNA level (OSC2 cells): showed little change | reduction in SS-B/La mRNA (OSC2 cells): less pronounced and did not occur until 24 hrs of exposure | Golgin-67 protein level (NS-SV-AC cells [1]; 24 hrs): reduced | PARP protein level (NS-SV-AC cells [1]; 24 hrs): significantly reduced | SS-A/Ro 52 protein level (NS-SV-AC cells [1]; 24 hrs): Neither SS-A/Ro 52 nor SS-B/La were significantly reduced | SS-B/La protein level (NS-SV-AC cells [1]; 24 hrs): Neither SS-A/Ro 52 nor SS-B/La were significantly reduced | coilin protein level (NS-SV-AC cells [1]; 24 hrs): significantly reduced | Golgin-67 protein level (NS-SV-AC cells [1]; 48 hrs): barely detectable | PARP protein level (NS-SV-AC cells [1]; 48 hrs): barely detectable | SS-A/Ro 52 protein level (NS-SV-AC cells [1]; 48 hrs): considerably reduced | SS-B/La protein level (NS-SV-AC cells [1]; 48 hrs): considerably reduced | coilin protein level (NS-SV-AC cells [1]; 48 hrs): barely detectable | PARP protein level (NHEK [2]; 24 hrs): significantly reduced | SS-A/Ro 52 protein level (NHEK [2]; 24 hrs): Neither SS-A/Ro 52 nor SS-B/La were significantly reduced | SS-B/La protein level (NHEK [2]; 24 hrs): Neither SS-A/Ro 52 nor SS-B/La were significantly reduced | coilin protein level (NHEK [2]; 24 hrs): significantly reduced | Golgin-67 protein level (NHEK [2]; 48 hrs): the reduction was not as marked and was only observed at 48 hrs | PARP protein level (NHEK [2]; 48 hrs): barely detectable | SS-A/Ro 52 protein level (NHEK [2]; 48 hrs): considerably reduced | SS-B/La protein level (NHEK [2]; 48 hrs): considerably reduced | coilin protein level (NHEK [2]; 48 hrs): barely detectable | pERK (NS-SV-AC cells [3]): only a slight increase | phosphorylation of JNK (NS-SV-AC cells [3]): not altered | phosphorylation of p38 (NS-SV-AC cells [3]): rapid and sustained phosphorylation | time to p38 phosphorylation (NS-SV-AC cells [3]): ≤ 30 min | SS-B/La mRNA level (NS-SV-AC cells [4]): decreased progressively and substantially | SS-B/La mRNA level (NHEK [5]): decreased progressively and substantially | protection from TNFα-induced cytotoxicity (NS-SV-AC cells [6]): up to 50%
